Assay results: patent publication US20250034216A1, “STEREOSELECTIVE COVALENT LIGANDS FOR ONCOGENIC AND IMMUNOLOGICAL PROTEINS” (The Scripps Research Institute, priority 2021, published 2025)

How the values were obtained:
CDKAL1_C556 = biological target: T1, CDKAL1_C556 (Homo sapiens, UniProt Q5VV42); assay: IA-DTB cysteine engagement; assay type: binding; settings: 22Rv1 cells, relative to DMSO; for % engagement CDKAL1_C556: 20 μM probe, 1 h; for % engagement CDKAL1_556: 5 μM probe, 1 h (FIG. 5B)
T1 construct: endogenous in cells; host or cells: 22Rv1
T1 sequence (Q5VV42 1-579): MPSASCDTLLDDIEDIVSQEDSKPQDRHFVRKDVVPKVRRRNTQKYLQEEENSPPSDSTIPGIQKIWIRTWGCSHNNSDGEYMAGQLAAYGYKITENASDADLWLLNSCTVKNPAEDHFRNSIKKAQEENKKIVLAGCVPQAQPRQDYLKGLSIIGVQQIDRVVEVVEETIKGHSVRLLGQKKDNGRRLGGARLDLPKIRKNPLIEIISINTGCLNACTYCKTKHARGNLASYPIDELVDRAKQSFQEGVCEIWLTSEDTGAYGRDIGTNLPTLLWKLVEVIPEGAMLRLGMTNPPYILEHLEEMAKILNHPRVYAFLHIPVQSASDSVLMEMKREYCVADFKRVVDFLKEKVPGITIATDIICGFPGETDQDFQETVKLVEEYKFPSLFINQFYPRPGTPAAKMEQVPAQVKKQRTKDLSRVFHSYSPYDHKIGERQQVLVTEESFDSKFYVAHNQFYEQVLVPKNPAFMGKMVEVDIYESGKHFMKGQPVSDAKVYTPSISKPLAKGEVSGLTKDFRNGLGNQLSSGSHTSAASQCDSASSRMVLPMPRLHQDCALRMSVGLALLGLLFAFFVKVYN
Procedure, shortened: (§1)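 In-situ probe treatment of cells; lysate 2 mg/mL, IA-DTB 1 h RT; MeOH/CHCl3 precipitation, DTT/iodoacetamide, trypsin; streptavidin enrichment; TMT labeling, high-pH fractionation. Ratio = TMT reporter intensity / mean DMSO channels, median-normalized.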

EPB42_C586 = biological target: T2, EPB42_C586 (Homo sapiens, UniProt P16452); assay: IA-DTB cysteine engagement; assay type: binding; settings: 22Rv1 cells, 20 μM probe, 1 h, relative to DMSO
T2 construct: endogenous in cells; host or cells: 22Rv1
T2 sequence (P16452 1-691): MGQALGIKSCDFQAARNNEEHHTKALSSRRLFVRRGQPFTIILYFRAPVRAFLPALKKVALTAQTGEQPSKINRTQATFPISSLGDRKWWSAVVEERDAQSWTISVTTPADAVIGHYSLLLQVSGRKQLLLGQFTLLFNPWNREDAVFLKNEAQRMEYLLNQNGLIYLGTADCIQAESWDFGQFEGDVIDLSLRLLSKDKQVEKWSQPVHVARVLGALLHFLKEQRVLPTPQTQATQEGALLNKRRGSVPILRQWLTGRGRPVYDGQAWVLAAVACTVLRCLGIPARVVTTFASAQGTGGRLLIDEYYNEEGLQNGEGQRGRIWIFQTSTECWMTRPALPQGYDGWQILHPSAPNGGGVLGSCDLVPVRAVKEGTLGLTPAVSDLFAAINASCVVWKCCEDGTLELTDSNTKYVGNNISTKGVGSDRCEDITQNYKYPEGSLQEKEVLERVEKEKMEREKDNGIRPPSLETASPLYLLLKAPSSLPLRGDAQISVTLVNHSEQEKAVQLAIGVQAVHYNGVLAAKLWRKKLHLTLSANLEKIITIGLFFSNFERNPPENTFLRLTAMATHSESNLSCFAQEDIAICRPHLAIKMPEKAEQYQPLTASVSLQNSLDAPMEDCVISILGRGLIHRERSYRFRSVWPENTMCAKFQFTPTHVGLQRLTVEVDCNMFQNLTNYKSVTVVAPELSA
Procedure, shortened: as §1

Compound	% engagement CDKAL1_C556 (CDKAL1_C556)	% engagement EPB42_C586 (EPB42_C586)	% engagement CDKAL1_556 (CDKAL1_C556)
C=CC(=O)N1C[C@@H](c2ccc(Br)cc2)[C@H]1C(=O)Nc1cccc2cccnc12 [MY-1A, (2S,3R)-1-acryloyl-3-(4-bromophenyl)-N-(quinolin-8-yl)azetidine-2-carboxamide]	59.5%	55%	
C=CC(=O)N1C[C@H](c2ccc(Br)cc2)[C@@H]1C(=O)Nc1cccc2cccnc12 [MY-1B, (2R,3S)-1-acryloyl-3-(4-bromophenyl)-N-(quinolin-8-yl)azetidine-2-carboxamide]	91%	33.5%	79.33%
C=CC(=O)N1C[C@H](c2ccc(Br)cc2)[C@H]1C(=O)Nc1cccc2cccnc12 [MY-3A, (2S,3S)-1-acryloyl-3-(4-bromophenyl)-N-(quinolin-8-yl)azetidine-2-carboxamide]	88.5%	66.5%	

Further lines, results first:

% engagement CDKAL1_C556 (CDKAL1_C556)	% engagement EPB42_C586 (EPB42_C586)	% engagement CDKAL1_556 (CDKAL1_C556)	Compound
89%	43.5%		C=CC(=O)N1C[C@H](c2ccc(Br)cc2)[C@H]1C(=O)Nc1cccc2cccnc12 [MY-3B, (2S,3S)-1-acryloyl-3-(4-bromophenyl)-N-(quinolin-8-yl)azetidine-2-carboxamide]
		67.00%	CC#CC(=O)N1C[C@H](c2ccc(Br)cc2)[C@@H]1C(=O)Nc1cccc2cccnc12 [MY-45B, (2R,3S)-3-(4-bromophenyl)-1-(but-2-ynoyl)-N-(quinolin-8-yl)azetidine-2-carboxamide]
